Reference: patent publication US20100034901A1, “ANIMAL FEED COMPOSITIONS” (priority 2006, published 2010)
Entries after “also recorded” stand apart in the source; their conditions may differ.

Experiments:
[1] = system: Duroc and Yorkshire pigs; assay: Boron supplementation and OC-associated lameness in swine (Example 1); format: in vivo, pig
Protocol: The basal diet consisted of commercial corn-soy diet containing 10 ppm boron.
Test diet group B was fed a basal diet plus 25 mg/kg boron as sodium borate decahydrate (borax). Test diet group A was fed a basal diet plus 25 mg/kg boron as sodium borate decahydrate (borax) and 250 mg/kg ascorbic acid.
Pigs were weighed at the beginning of the study, 4 weeks later and every 3 weeks until the end of the study. Animals were scored for soundness on a 5-point scale at each weighing. (Five-point scale: 1=no soundness defects; 2=minor soundness issues but still sound enough for retention as breeding animal; 3=not sound enough for retention for breeding but still marketable; 4=unsound, likely to be rejected at slaughter; 5=severely lame, requiring euthanasia for humane reasons.) Grading was done by the caretaker and the investigator at all weighing times. An experienced independent treatment-blind rater also evaluated the soundness of each animal and the ratings he provided were compared with the ratings of the caretaker and investigator by use of Cohen's Kappa test.
The animals were housed in a modern curtain sided barn with deep straw bedding, with ad libitum access to feed and water. Waterers and feeders were on a concrete pad but the remainder of the flooring was deep straw over a ground limestone and sand base. Floor space allowances exceeded the recommendations of the Guide for the Care and Use of Agricultural Animals in Agricultural Research and Teaching, First Revised Edition, 1999. Federation of Animal Science Societies. Savoy, Ill.
The basal diet (no boron supplemented) was analysed and found to contain boron at the rate of 10 ppm which is typical for a corn-soybean meal based diet.
At the end of the study the pigs were transported to a laboratory where they were euthanized and necropsied. Six pigs in each of group B and group A were put on the control diet for 7 days at the end of the study.
At necropsy, samples of liver, heart, kidney, fat, skeletal muscle, proximal tibia, blood, and the rostral snout were retained and frozen at −40° C. prior to chemical analysis. All joints of the axial skeleton were evaluated for the presence of gross lesions of osteochondrosis and graded on a 5 point scale. (5-point scale: 1=no gross abnormalities; 2=minor imperfections in articular conformation or articular reddening present but no cartilage erosions; 3=cartilage intact but surface irregularities of the cartilage are present; 4=fissuring or erosion of articular cartilage is obvious; 5=full thickness cartilage lesions or cartilage flaps, osteochondritis dissecans obviously present).
The proximal femur (femoral head) and articular surfaces and growth plates associated with the stifle, hock, shoulder, elbow and carpus were sectioned with a band saw and approx. 0.5 to 1.0 cm sections fixed in formalin. […]
Mean joint lesion scores, growth rate and soundness scores by treatment and by factors boron and ascorbate were compared using an analysis of variance and t-test as appropriate. Soundness scores were dichotomised into binary categorical variables for lameness (soundness score>2) and for absence of defects (soundness<2), and the binary variables analysed by chi-square and logistic regression.
Tissue specimens stained with H&E were examined microscopically for the presence of lesions of osteochondrosis. […] Each tissue section was scored by a treatment-blind board-certified pathologist. […]

[2] = system: pig cartilage; assay: Glycosaminoglycan study: sGAG in articular cartilage plugs of hock and elbow joints; format: in vivo; settings: pigs fed 50 ppm boron
Protocol: Hock joints and elbow joints were obtained at necropsy from pigs in two feeding groups: one group having been fed a commercial ration supplemented with 50 mg B/kg feed and the other being fed only the standard commercial pig ration.
Cartilage plugs were harvested from the articular surfaces of 40 hock and elbow joints using a #5 (10.5 mm) cork borer. The samples were papain digested and analyzed for concentration of sulfated glycosaminoglycan (sGAG) using a spectrophotometric microplate analysis procedure adapted from Farndale, et al (1986), using a chondrotin sulfate standard. This method measures total sulfated glycosaminoglycan, most of which is chondrotin sulfate and keratan sulfate components of aggrecan. Aggrecan is the large aggregating proteoglycan of cartilage responsible for creating and maintaining the osmotic pressure of cartilage. Quanititation of sGAG concentration thus provides a measure of the weight-bearing and anti-friction properties of cartilage and is a measure of cartilage quality and durability.

[3] = system: sows and their litters; assay: Sow and litter trial in a commercial swine operation during a PRRSV outbreak; format: in vivo; settings: sows given 1 mg boron per pound BW per day
Protocol: To test the effect of boron on sows and their litters, a trial was established in a large commercial swine operation during an outbreak of porcine viral reproductive and respiratory disease (PRRSV). Boron was administered orally to a group of 51 sows individually housed in crates at the rate of 1 mg boron per pound BW per day beginning 1 week prior to farrowing and continuing until the piglets were weaned at 14 days of age. […] Boron treatment was supplied as a single daily dosing and was discontinued at weaning. All sows were fed a standard commercial sow diet.

[4] = system: crossbred pigs; assay: 28-day feeding trial: phosphorus digestibility and excretion, feed conversion; format: in vivo, pig; settings: 50 ppm Added B; 28 days; N 12 pens
Protocol: Pigs were randomly allocated to 24 pens of 6 pigs per pen in a thermoneutral controlled environment barn with steel grid flooring. Each pen was equipped with a single-hole feeder. Water was available free-choice from a nipple drinker. […] Feces were collected on the last 3 days of the study from each pen and a pooled aliquot was dried and submitted for chemical analysis. Yttrium oxide was added to the diet at 0.05% and served as a marker for phosphorus digestibility. Pig growth and feed consumption was measured at the end of the study with the pen as the experimental unit. Data was analyzed for effects of boron and calcium by univariate and multivariate analysis of variance and t-tests.

[5] = system: turkeys; assay: Turkey Study 3: growth, lameness scoring, femur breaking force, cartilage indenter test; format: in vivo; settings: for leg weakness scores (mean): 5 point scale, control 3.0; for growth response (bird weight) / growth rates: groups with boron versus groups without boron
Description: 250 turkeys were selected at random at week 11 and divided into 5 treatment groups: 1) control, 2) ascorbate only “(VC”), 3) boron only (“B”), 4), boron and ascorbate (“B+C”), and 5) ½ rate boron and full rate ascorbate (“LoB+C”). Full rates of both boron and ascorbate were as described for study 1. At 17 weeks, all birds were weighed, scored for lameness/mobility/gait abnormality using the five point scale used in study 1, and sacrificed. The femur was dissected from each leg of each bird and subjected to an ultimate breaking force analysis. Cartilage at the femoral distal condyle was subjected to an indenter test.
For the lameness/mobility/gait abnormality scoring, three graders were used. Two of the graders were “blind” graders unaware of each turkey's grouping. The third grader was a “biased” grader aware of each turkey's grouping. Partial grading on the 5 point scale described above was allowed. FIG. 11 presents the cross-tabulation of the graders' results.

[6] = system: pigs of about 100 kg body weight; assay: 3-NPB study in pigs with or without supplemental boron
Protocol: The pigs were evaluated for lameness daily and euthanatized on day 13 and the joints and other organs were examined.

[7] = system: sows, piglets and pigs on farms; format: in vivo; settings: sows on 1 mg/kg body weight boron as boric acid; usual mortality for this farm about 5 to 7%
Protocol: Boron was added to the diet of sows at 1 mg/kg body weight as boric acid. […] Among a group of 95 piglets the birth to weaning mortality was 2 piglets. The usual mortality for this farm was about 5 to 7%. These piglets remained on boron 50 ppm plus ascorbate 125 ppm. One pig was euthanized and examined at a weight of about 85 pounds. […] All bones of the appendicular skeleton were sectioned on the band saw.
An Iowa farm treated a group of about 100 pigs with 50 ppm boron as boric acid. None of these pigs developed any signs of lameness or unsoundness. The farmer reported that these pigs are the most sound he has raised. The estimated previous lameness/unsoundness rate was about 25 to 30%, and zero in the test group. […] The absence of lameness and hock swelling was observed. Two pigs with hock swelling were euthanised from among the younger and older pigs not treated with boric acid. […] An older pig of about 250 pounds body weight with severe lameness in the right hock was euthanised.

[8] = boron supplementation 50 ppm, 3-NPB none

Compound	TBlue staining intensity (semi-quantitative measure of sGAG content of cartilage) ([1]; boron supplemented group vs unsupplemented pigs)	joint condition vs basal diet with no supplemental boron (FIG. 1) ([1]; growing swine supplemented with boron)	Growth plate lesions associated with widening, found in % of tissues ([1]; pigs receiving 25 ppm boron, microscopic sections of articular cartilage and growth plate) [%]	Articular cartilage lesions (necrosis, hemorrhage, infarction, or streaks), found in % of tissues ([1]; pigs receiving 25 ppm supplemental B, microscopic sections) [%]	occurrence of OC in pigs ([1]; supplemental boron at 25 ppm to 50 ppm, FIGS. 1, 3 and 4)	sGAG concentration (dry matter basis) in the cartilage [2] [ng/g]	litter size at birth [3]	piglet birth weight [3]	Feed Conversion Ratio (feed/gain) [4]	leg weakness scores (mean) [5]	improvement of bone strength as compared with the control ([5]; boron alone, 3-point bending test of the femur) [%]	effect on femur break force (main effects analysis, FIG. 26) ([5]; week 11 to 17)	growth response (bird weight) / growth rates ([5]; week 11 to 17)	growth response (bird weight) / growth rates ([5]; week 11 to 17, listed as B)	Clinical Lameness Score: Normal (count of pigs) [6, 8]	Clinical Lameness Score: Visible Lameness (count of pigs) [6, 8]	prevalence and severity of osteochondrosis lesions (shoulder, stifle, hock and elbow joints) ([6]; supplemental boron and no 3-NPB)	bone strength as measured by 3-point bending test ([5]; administered in drinking water)	cartilage strength by indenter test at the femoral distal condyle (FIG. 27) ([5]; week 11 to 17)	birth to weaning mortality among a group of 95 piglets [7] [piglets]
[B] [Boron]	consistently higher	healthier joints	19	4	significant reduction	11050	no effects	no effects	2.32	2.3	7.8	large effect	improved	significant	5	0	lowest prevalence of lesions and the lowest severity	–	–	–
O=C1O[C@H]([C@@H](O)CO)C(O)=C1O [ascorbate, ascorbic acid, reference compound]	–	–	–	–	–	–	–	–	–	did not significantly improve	–	lesser effect	–	–	–	–	–	slightly improved bone strength	statistically significant effect; also recorded: improved cartilage strength	–
OB(O)O [boric acid]	–	–	–	–	–	–	–	–	–	–	–	–	–	–	–	–	–	–	–	2
